# Measured values reported in US10960005B2, “Treatment of relapsed and/or refractory solid tumors and non-hodgkin's lymphomas” (CELGENE QUANTICEL RESEARCH, INC., priority 2016, dated 2021).
# Where two headings read alike, the source gives them in different places.
# Columns and labels:
# [1] = molecular target: MDR1 (human P-gp) MDCK cells (Homo sapiens (Human), UniProt P08183); test: Permeability in MDR1 (human P-gp) MDCK cells; conditions: B→A direction
# [2] = test system: LXFS 2156 SCLC patient-derived xenograft; test: Efficacy in LXFS 2156 SCLC PDX model; assay type: in vivo, mice; conditions: 5 mg base/kg orally QD×23
# [3] = test system: LXFS 573 SCLC patient-derived xenograft; assay type: in vivo
# [4] = test system: H3K4me2 at ST18 and FREM2 gene loci in MS-1 cells; test: ChIP-seq LSD1 occupancy and H3K4me2 status, MS-1; assay type: cell-based, human; conditions: 100 nM, 3 days
# [5] = test system: NCI-H1417 SCLC xenograft; assay type: in vivo
# [6] = test system: ST18 and FREM2 expression in MKL-1 tumors; test: In vivo xenograft dose-response of PD biomarker gene expression, MKL-1; parameters: species or system mice; conditions: 1, 2.5, or 5 mg/kg PO BID ×4.5; tumors 4 h after last dose
# Source text: (§1) Female NSG mice bearing palpable hMCC MKL-1 and MS-1 tumors were randomized into four groups of three mice each. […] The fourth group was orally administered vehicle as a control on the BID schedule. Four hours after the last dosing, tumors were collected into RNA later and stored frozen.
# (§2) Total RNA was eluted in RNase-free water and analyzed by qRT-PCR.
# [7] = test system: LXFS 573 SCLC patient-derived xenograft; test: Efficacy in LXFS 573 SCLC PDX model; assay type: in vivo, mice; conditions: for % TGI / TGI: Day 28
# [8] = 4-week toxicity study (no recovery period) in dogs (QW/Q2W); assay type: in vivo; conditions: for AUC0-96 / Cmax: Dogs
# Source text: All animals survived to the terminal sacrifice.
# [9] = test system: LU1480 SCLC patient-derived xenograft; test: Efficacy in LU1480 HuPrime SCLC PDX model; assay type: in vivo, mice
# [10] = test system: LXFS 615 SCLC patient-derived xenograft; conditions: 5 mg base/kg; plasma after final dose
# [11] = test system: ST18 and FREM2 expression in MS-1 tumors; test: In vivo xenograft dose-response of PD biomarker gene expression, MS-1; parameters: species or system mice; conditions: 1, 2.5, or 5 mg/kg PO BID ×4.5; tumors 4 h after last dose
# Source text: as §1, §2
# [12] = test system: LXFS 1129 SCLC patient-derived xenograft
# [13] = test system: LU2514 SCLC patient-derived xenograft; test: Efficacy in LU2514 HuPrime SCLC PDX model; assay type: in vivo, mice; conditions: Day 28
# Description: Tumor growth inhibition analysis was performed on Day 28 post treatment, the last day of dosing.
# In both studies with LU2514 animal model.
# [14] = QW 1.25 mg oral dose, 60-kg human, 80% oral bioavailability assumed
# [15] = test system: NCI-H841 SCLC cell line; test: Antiproliferative activity, NCI-H841; assay type: cell-based, human; conditions: 3D assay; Calcein AM
# [16] = Excretion in bile duct cannulated rats (IV); assay type: in vivo; conditions: 24-hour period post dosing
# [17] = test system: gene expression (ST18, FREM2) in MS-1 cells; test: Gene expression modulation (RNA-seq, qRT-PCR) in cultured MS-1 cells; assay type: cell-based, human; conditions: 10 and 100 nM, three days
# Description: 22, 66, or 200 nM for qRT-PCR analysis.
# Libraries were sequenced on an Illumina NextSeq® 500 System (Illumina, San Diego, Calif.) using 75 base paired-end RNA sequencing. Sequenced reads were mapped to the hg19 human genome build and differential expression was determined by analysis of variance across all replicates relative to the vehicle control
# Sequenced reads were mapped to the hg19 human genome build using the Spliced Transcripts Alignment to a Reference (STAR) software tool (©Alexander Dobin, 2009-2016) and transcript counts were normalized using the Empirical Analysis of Digital Gene Expression Data in R (edgeR) and Differential gene expression analysis based on the negative binomial distribution (DESeq2) software tools (©Bioconductor, 2003-2017). Differential expression was determined by analysis of variance across all replicates relative to the vehicle control.
# [18] = Compound A 1 mg/kg in combination with etoposide 24 mg/kg
# [19] = Compound A monotherapy 5 mg/kg PO 5 on/2 off
# [20] = etoposide 24 mg/kg SC QD×3 followed by Compound A 5 mg/kg PO 5 on/2 off
# [21] = Day 1, 0.125 mg base/kg/dose oral QW, Sexes Combined
# [22] = Day 1, 0.25 mg base/kg/dose oral QW, M
# [23] = Day 1, 0.5 mg base/kg/dose oral Q2W, M
# [24] = Day 15, 0.125 mg base/kg/dose oral QW, F
# [25] = Day 15, 0.125 mg base/kg/dose oral QW, M
# [26] = Day 15, 0.125 mg base/kg/dose oral QW, Sexes Combined
# Sequence of MDR1 (human P-gp) MDCK cells (P08183 whole entry): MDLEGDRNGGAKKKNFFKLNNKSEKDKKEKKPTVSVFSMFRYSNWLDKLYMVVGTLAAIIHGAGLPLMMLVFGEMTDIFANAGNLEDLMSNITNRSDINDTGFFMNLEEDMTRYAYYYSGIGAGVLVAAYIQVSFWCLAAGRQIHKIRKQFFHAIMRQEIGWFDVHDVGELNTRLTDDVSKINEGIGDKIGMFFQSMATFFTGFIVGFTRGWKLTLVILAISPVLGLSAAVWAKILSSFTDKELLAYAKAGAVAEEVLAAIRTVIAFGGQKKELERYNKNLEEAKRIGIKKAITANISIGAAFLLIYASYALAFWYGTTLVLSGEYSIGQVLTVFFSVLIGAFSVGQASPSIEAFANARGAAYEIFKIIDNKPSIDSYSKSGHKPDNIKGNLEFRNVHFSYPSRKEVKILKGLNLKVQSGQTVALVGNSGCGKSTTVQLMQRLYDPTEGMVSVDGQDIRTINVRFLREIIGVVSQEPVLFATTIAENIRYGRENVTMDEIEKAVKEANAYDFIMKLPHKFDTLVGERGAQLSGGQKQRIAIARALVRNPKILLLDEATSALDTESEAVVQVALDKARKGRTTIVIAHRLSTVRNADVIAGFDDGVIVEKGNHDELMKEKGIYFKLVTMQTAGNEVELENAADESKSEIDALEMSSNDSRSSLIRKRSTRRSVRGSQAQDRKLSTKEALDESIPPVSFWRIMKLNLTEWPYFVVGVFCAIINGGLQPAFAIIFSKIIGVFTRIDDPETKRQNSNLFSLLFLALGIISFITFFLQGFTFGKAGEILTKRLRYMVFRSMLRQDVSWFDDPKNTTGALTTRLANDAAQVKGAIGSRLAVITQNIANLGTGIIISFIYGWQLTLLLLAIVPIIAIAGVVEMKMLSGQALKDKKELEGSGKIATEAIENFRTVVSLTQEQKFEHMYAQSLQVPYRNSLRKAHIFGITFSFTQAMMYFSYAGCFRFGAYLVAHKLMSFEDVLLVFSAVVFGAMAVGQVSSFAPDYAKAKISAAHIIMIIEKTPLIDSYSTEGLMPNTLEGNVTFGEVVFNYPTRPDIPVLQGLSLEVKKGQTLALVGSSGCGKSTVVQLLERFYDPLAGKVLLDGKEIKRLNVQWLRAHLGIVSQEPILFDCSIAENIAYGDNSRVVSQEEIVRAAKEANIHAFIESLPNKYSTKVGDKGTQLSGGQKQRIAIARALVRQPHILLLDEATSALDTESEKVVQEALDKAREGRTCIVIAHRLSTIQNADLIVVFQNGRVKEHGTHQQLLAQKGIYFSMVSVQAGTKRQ
compound,measurement,setting,value
COc1ccc(-c2c(-c3ccc(C#N)c(F)c3)nc(N3CCC(N)CC3)n(C)c2=O)cc1F [Compound A],permeability,[1],16.5 ×10⁻⁶ cm/s
same,TGI,[2],−7%
same,% TGD,[3]; [18],38%
same,TGD,[3]; [18],16 days
same,median TTE,[3]; [18],59 days
same,survivors on Day 133,"[3]; Compound A 1 mg/kg in combination with etoposide 24 mg/kg, of eight",1
same,TGD,[3]; Compound A 2.5 mg/kg in combination with etoposide 24 mg/kg,79 days
same,survivors on Day 133,"[3]; Compound A 2.5 mg/kg in combination with etoposide 24 mg/kg, of eight",3
same,TGD,[3]; Compound A 5 mg/kg in combination with etoposide 24 mg/kg,91 days
same,survivors on Day 133,"[3]; Compound A 5 mg/kg in combination with etoposide 24 mg/kg, of eight",8
same,study survivors on Day 133,"[3]; Compound A monotherapy 5 mg/kg, of eight",seven
same,H3K4me2 at the LSD1 binding site of ST18 gene,[4],increased H3K4me2
same,% TGD,[5]; [19],335%
same,TGD,[5]; [19],87 days
same,median TTE,[5]; [19],113 days
same,% TGD,[5]; [20],435%
same,TGD,[5]; [20],113 days
same,median TTE,[5]; [20],139 days
same,ST18 and FREM2 change in gene expression in vivo,[6],≥ 2 fold
same,% TGI,[7]; 5 mg base/kg PO QD × 28,72%
same,TGI,[7]; 5 mg base/kg oral,78%
same,TGI,[7]; 7.5 mg base/kg oral,58%
same,% TGI,[7]; 10 mg base/kg PO QD × 28,71%
same,TGI,[7]; 10 mg/kg oral,71%
same,mean body weight losses,"[7]; mouse, in vivo",≤ 3%
same,combined Day 15 mean AUC,[8]; 0.125 mg base/kg/dose QW,127 ng·h/mL
same,combined Day 15 mean Cmax,[8]; 0.125 mg base/kg/dose QW,5.26 ng/mL
same,combined Day 15 mean AUC,[8]; 0.25 mg base/kg/dose QW,287 ng·h/mL
same,combined Day 15 mean Cmax,[8]; 0.25 mg base/kg/dose QW,11.0 ng/mL
same,combined Day 15 mean AUC,[8]; 0.5 mg base/kg/dose Q2W,636 ng·h/mL
same,combined Day 15 mean Cmax,[8]; 0.5 mg base/kg/dose Q2W,22.0 ng/mL
same,AUC0-96,"[8]; Day 1, 0.125 mg base/kg/dose oral QW, F",127 ng·h/mL
same,AUC0-96,[8]; [21],120 ng·h/mL
same,Cmax,[8]; [21],5.79 ng/mL
same,AUC0-96,[8]; [22],335 ng·h/mL
same,Cmax,[8]; [22],11.9 ng/mL
same,Cmax,"[8]; Day 1, 0.25 mg base/kg/dose oral QW, Sexes Combined",12.0 ng/mL
same,Cmax,"[8]; Day 1, 0.5 mg base/kg/dose oral Q2W, F",26.6 ng/mL
same,AUC0-96,[8]; [23],762 ng·h/mL
same,Cmax,[8]; [23],24.0 ng/mL
same,Cmax,"[8]; Day 1, 0.5 mg base/kg/dose oral Q2W, Sexes Combined",25.3 ng/mL
same,AUC0-96,[8]; [24],141 ng·h/mL
same,Cmax,[8]; [24],5.54 ng/mL
same,AUC0-96,[8]; [25],107 ng·h/mL
same,Cmax,[8]; [25],4.89 ng/mL
same,AUC0-96,[8]; [26],127 ng·h/mL
same,Cmax,[8]; [26],5.26 ng/mL
same,Cmax,"[8]; Day 15, 0.25 mg base/kg/dose oral QW, Sexes Combined",11.0 ng/mL
same,Cmax,"[8]; Day 15, 0.5 mg base/kg/dose oral Q2W, Sexes Combined",22.0 ng/mL
same,treatment-related adverse finding,"[8]; single female, 0.25 mg base/kg/dose QW",Moderate acute inflammation in the ileum and marked acute inflammation in the cecum
same,% TGI,[9]; 10 mg base/kg PO QD × 21,72%
same,TGI,[9]; 10 mg base/kg orally for 15 days (second LU1480 experiment),46%
same,AUC0-24,[10],"1,617 ng·hr/mL"
same,ST18 and FREM2 change in gene expression in vivo,[11],≥ 2 fold
same,AUC0-24,[12]; 1.5 mg base/kg,243 ng·h/mL
same,AUC0-24,[12]; 5 mg base/kg,"1,262 ng·hr/mL"
same,mean body weight losses,"[12]; mouse, in vivo",< 6%
same,% TGI,[13]; 5 mg base/kg PO QD × 28,43%
same,% TGI,[13]; 10 mg base/kg PO QD × 28,61%
same,predicted steady state systemic exposure (AUCt),[14],29 ng·h/mL
same,IC50,[15],> 500 µM
same,dose excreted intact in urine,[16],8.5 % of dose
same,ST18 and FREM2 gene expression changes (upregulated),[17],at least 2 fold
